Measurements reported in patent US12642797B2, “Coated granule, solid dispersion, and preparation containing vortioxetine hydrobromide for oral taste masking” (Seasons Biotechnology (Taizhou) Co., Ltd., priority 2019, dated 2026).
Counter-ions that a name gives are not always drawn.

How the values were obtained:
[1] = tested on: tongue; assay: Comparative Example 1: comparison of taste of different vortioxetine salts (10 subjects, 30 attempts); conditions: converted to the same amount of C18H22N2S
Protocol: The vortioxetine lactate salt, vortioxetine hydrobromide and vortioxetine hemihydrobromide equivalent to 5 mg of vortioxetine respectively over 100 mesh powders were put directly in front of the upper part of the tongue for one minute. There were 10 subjects in each salt-type group, and each subject randomly tried each salt-type 3 times. After trying one salt-type taste, rinsed your mouth, and try another salt-type after there was no irritation. After trying the taste, record the bitterness level and tongue irritation, spit it out a few seconds later, rinse your mouth, record the time for the irritation to subside, eat 1-1.5 hours later, and record the irritation again.

[2] = tested on: oral cavity and tongue; assay: Taste and irritation test by subjects (self-made sample vs reference sample); assay type: in vivo, human; conditions: for Instantaneous irritation: 0-1 minute; for Instantaneous irritation / Delayed irritation: powder equivalent to 20 mg of vortioxetine tasted, hemihydrobromide
Protocol: In the examples, the taste masking effects of test samples were evaluated by the subject's perception of the bitterness and irritation of the oral cavity and tongue. The Taste and Irritation Classification Tested by the Subjects: [table]

[3] = Subject 1, listed as Reference sample (1a)
[4] = Subject 1, listed as Reference sample (1e)
[5] = Subject 1, listed as Reference sample (2a)
[6] = Subject 1, listed as Reference sample (2c)
[7] = Subject 1, listed as Reference sample (3a)
[8] = Subject 1, listed as Reference sample (3b)
[9] = Subject 1, listed as Reference sample (3c)
[10] = Subject 1, listed as Reference sample (4a)
[11] = Subject 1, listed as Reference sample (1d)
[12] = Subject 1, listed as Reference sample (2d)
[13] = Subject 2, listed as Reference sample (1a)
[14] = Subject 2, listed as Reference sample (1e)
[15] = Subject 2, listed as Reference sample (2a)
[16] = Subject 2, listed as Reference sample (2c)
[17] = Subject 2, listed as Reference sample (3a)
[18] = Subject 2, listed as Reference sample (3b)
[19] = Subject 2, listed as Reference sample (3c)
[20] = Subject 2, listed as Reference sample (4a)
[21] = Subject 2, listed as Reference sample (1d)
[22] = Subject 2, listed as Reference sample (2d)
[23] = Subject 3, listed as Reference sample (1a)
[24] = Subject 3, listed as Reference sample (1e)
[25] = Subject 3, listed as Reference sample (2a)
[26] = Subject 3, listed as Reference sample (2c)
[27] = Subject 3, listed as Reference sample (3a)
[28] = Subject 3, listed as Reference sample (3b)
[29] = Subject 3, listed as Reference sample (3c)
[30] = Subject 3, listed as Reference sample (4a)
[31] = Subject 3, listed as Reference sample (1d)
[32] = Subject 3, listed as Reference sample (2d)

Cc1ccc(Sc2ccccc2N2CCNCC2)c(C)c1 [vortioxetine hemihydrobromide]
Irritation compared with vortioxetine hydrobromide, in words [1]: significantly less irritating
Irritation, overall comparison in words ([2]; 5 subjects, treated powder vs untreated 100-mesh salt powder, each equivalent to 20 mg vortioxetine): obvious and could hardly be tolerated
Instantaneous irritation [2, 3]: ++ (+ + Irritating, tolerable)
Instantaneous irritation [2, 4]: ++ (+ + Irritating, tolerable)
Instantaneous irritation [2, 5]: +++ (+ + + Strong irritation, intolerable)
Instantaneous irritation [2, 6]: +++ (+ + + Strong irritation, intolerable)
Instantaneous irritation [2, 7]: +++ (+ + + Strong irritation, intolerable)
Instantaneous irritation [2, 8]: +++ (+ + + Strong irritation, intolerable)
Instantaneous irritation [2, 9]: +++ (+ + + Strong irritation, intolerable)
Instantaneous irritation [2, 10]: +++ (+ + + Strong irritation, intolerable)
Instantaneous irritation [2, 11]: ++ (+ + Irritating, tolerable)
Instantaneous irritation [2, 12]: ++ (+ + Irritating, tolerable)
Delayed irritation [2, 3]: >30 min
Delayed irritation [2, 4]: 15 to 30 min
Delayed irritation [2, 5]: >30 min
Delayed irritation [2, 6]: >30 min
Delayed irritation [2, 7]: >30 min
Delayed irritation [2, 8]: >30 min
Delayed irritation [2, 9]: >30 min
Delayed irritation [2, 10]: >30 min
Delayed irritation ([2]; Subject 1, listed as Reference sample (5)): 15 to 30 min
Delayed irritation ([2]; Subject 1, listed as Reference sample (6)): 15 to 30 min
Delayed irritation ([2]; Subject 1, listed as Reference sample (7a)): >30 min
Delayed irritation ([2]; Subject 1, listed as Reference sample (8a)): 15 to 30 min
Delayed irritation ([2]; Subject 1, listed as Reference sample (8b)): 15 to 30 min
Delayed irritation [2, 11]: 15 to 30 min
Delayed irritation [2, 12]: >30 min
Instantaneous irritation [2, 13]: +++ (+ + + Strong irritation, intolerable)
Instantaneous irritation [2, 14]: +++ (+ + + Strong irritation, intolerable)
Instantaneous irritation [2, 15]: ++ (+ + Irritating, tolerable)
Instantaneous irritation [2, 16]: ++ (+ + Irritating, tolerable)
Instantaneous irritation [2, 17]: ++ (+ + Irritating, tolerable)
Instantaneous irritation [2, 18]: ++ (+ + Irritating, tolerable)
Instantaneous irritation [2, 19]: ++ (+ + Irritating, tolerable)
Instantaneous irritation [2, 20]: ++ (+ + Irritating, tolerable)
Instantaneous irritation [2, 21]: +++ (+ + + Strong irritation, intolerable)
Instantaneous irritation [2, 22]: ++ (+ + Irritating, tolerable)
Delayed irritation [2, 13]: >30 min
Delayed irritation [2, 14]: >30 min
Delayed irritation [2, 15]: 15 to 30 min
Delayed irritation [2, 16]: 15 to 30 min
Delayed irritation [2, 17]: 15 to 30 min
Delayed irritation [2, 18]: 15 to 30 min
Delayed irritation [2, 19]: 15 to 30 min
Delayed irritation [2, 20]: 15 to 30 min
Delayed irritation ([2]; Subject 2, listed as Reference sample (5)): >30 min
Delayed irritation ([2]; Subject 2, listed as Reference sample (6)): >30 min
Delayed irritation ([2]; Subject 2, listed as Reference sample (7a)): 15 to 30 min
Delayed irritation ([2]; Subject 2, listed as Reference sample (8a)): 15 to 30 min
Delayed irritation ([2]; Subject 2, listed as Reference sample (8b)): 15 to 30 min
Delayed irritation [2, 21]: >30 min
Delayed irritation [2, 22]: 15 to 30 min
Instantaneous irritation [2, 23]: +++ (+ + + Strong irritation, intolerable)
Instantaneous irritation [2, 24]: +++ (+ + + Strong irritation, intolerable)
Instantaneous irritation [2, 25]: +++ (+ + + Strong irritation, intolerable)
Instantaneous irritation [2, 26]: +++ (+ + + Strong irritation, intolerable)
Instantaneous irritation [2, 27]: ++ (+ + Irritating, tolerable)
Instantaneous irritation [2, 28]: ++ (+ + Irritating, tolerable)
Instantaneous irritation [2, 29]: ++ (+ + Irritating, tolerable)
Instantaneous irritation [2, 30]: +++ (+ + + Strong irritation, intolerable)
Instantaneous irritation [2, 31]: +++ (+ + + Strong irritation, intolerable)
Instantaneous irritation [2, 32]: +++ (+ + + Strong irritation, intolerable)
Delayed irritation [2, 23]: >30 min
Delayed irritation [2, 24]: >30 min
Delayed irritation [2, 25]: 1 to 15 min
Delayed irritation [2, 26]: 1 to 15 min
Delayed irritation [2, 27]: >30 min
Delayed irritation [2, 28]: >30 min
Delayed irritation [2, 29]: >30 min
Delayed irritation [2, 30]: >30 min
Delayed irritation ([2]; Subject 3, listed as Reference sample (5)): 15 to 30 min
Delayed irritation ([2]; Subject 3, listed as Reference sample (6)): 15 to 30 min
Delayed irritation ([2]; Subject 3, listed as Reference sample (7a)): 15 to 30 min
Delayed irritation ([2]; Subject 3, listed as Reference sample (8a)): >30 min
Delayed irritation ([2]; Subject 3, listed as Reference sample (8b)): >30 min
Delayed irritation [2, 31]: >30 min
Delayed irritation [2, 32]: 1 to 15 min
Instantaneous irritation ([2]; Subject 4, listed as Reference sample (1a)): ++ (+ + Irritating, tolerable)
